Assay results published in patent US8207204B2, “Triazole derivatives as SCD inhibitors” (GlaxoSmithKline LLC, priority 2007, dated 2012).
Structures can show the parent of a compound that is named as a salt.

Row | Compound | melting point
1 | COc1ccc2nc(NC(=O)c3nnn(Cc4ccc(Cl)c(Cl)c4)c3C)sc2c1 | 225 °C
2 | Cc1c(C(=O)Nc2nc3[nH]c(=O)[nH]c(=O)c3s2)nnn1Cc1ccc(Cl)c(Cl)c1 | 279.9 °C
3 | Cc1nc(NC(=O)c2nnn(Cc3ccc(Cl)c(Cl)c3)c2C)sc1C(=O)NCCN(C)C.Cl | 121 °C
4 | Cc1nc(NC(=O)c2nnn(Cc3ccc(Cl)c(Cl)c3)c2C)sc1C(=O)N(C)C (as salt: hydrochloride) [Example 28, 1-[(3,4-Dichlorophenyl)methyl]-N-{5-[(dimethylamino)carbonyl]-4-methyl-1,3-thiazo1-2-yl}-5-methyl-1H-1,2,3-triazole-4-carboxamide] | 144 °C
5 | CCOC(=O)c1nnc(NC(=O)c2nnn(Cc3ccc(Cl)c(Cl)c3)c2C)s1 [Example 3, Ethyl 5-[({1-[(3,4-dichlorophenyl)methyl]-5-methyl-1H-1,2,3-triazol-4-yl}carbonyl)amino]-1,3,4-thiadiazole-2-carboxylate] | 203.8 °C
6 | COC(=O)c1cnc(NC(=O)c2nnn(Cc3ccc(Cl)c(Cl)c3)c2C)s1 [Example 4, Methyl 2-[({1-[(3,4-dichlorophenyl)methyl]-5-methyl-1H-1,2,3-triazol-4-yl}carbonyl)amino]-1,3-thiazole-5-carboxylate] | 212 °C
7 | Cc1c(C(=O)Nc2ncc(C=O)s2)nnn1Cc1ccc(Cl)c(Cl)c1 [Example 5, 1-[(3,4-Dichlorophenyl)methyl]-N-(5-formyl-1,3-thiazol-2-yl)-5-methyl-1H-1,2,3-triazole-4-carboxamide] | > 260 °C
8 | Cc1nnc(NC(=O)c2nnn(Cc3ccc(Cl)c(Cl)c3)c2C)o1 [Example 6, 1-[(3,4-Dichlorophenyl)methyl]-5-methyl-N-(5-methyl-1,3,4-oxadiazol-2-yl)-1H-1,2,3-triazole-4-carboxamide] | 192.2 °C
9 | COCc1nnc(NC(=O)c2nnn(Cc3ccc(Cl)c(Cl)c3)c2C)s1 [Example 7, 1-[(3,4-Dichlorophenyl)methyl]-5-methyl-N-{5-[(methyloxy)methyl]-1,3,4-thiadiazo1-2-yl}-1H-1,2,3-triazole-4-carboxamide] | 178.3 °C
10 | COC(=O)Cc1csc(NC(=O)c2nnn(Cc3ccc(Cl)c(Cl)c3)c2C)n1 [Example 8, Methyl {2-[({1-[(3,4-dichlorophenyl)methyl]-5-methyl-1H-1,2,3-triazol-4-yl}carbonyl)amino]-1,3-thiazol-4-yl}acetate] | 158 °C
11 | CCOC(=O)c1sc(NC(=O)c2nnn(Cc3ccc(Cl)c(Cl)c3)c2C)nc1C(F)(F)F [Example 9, Ethyl 2-[({1-[(3,4-dichlorophenyl)methyl]-5-methyl-1H-1,2,3-triazol-4-yl}carbonyl)amino]-4-(trifluoromethyl)-1,3-thiazole-5-carboxylate] | 155 °C
12 | Cc1nc(NC(=O)c2nnn(Cc3ccc(Cl)c(Cl)c3)c2C)sc1C [Example 10, 1-[(3,4-Dichlorophenyl)methyl]-N-(4,5-dimethyl-1,3-thiazol-2-yl)-5-methyl-1H-1,2,3-triazole-4-carboxamide] | 210.4 °C
13 | CCOC(=O)c1ccc2nc(NC(=O)c3nnn(Cc4ccc(Cl)c(Cl)c4)c3C)sc2c1 [Example 11, Ethyl 2-[({1-[(3,4-dichlorophenyl)methyl]-5-methyl-1H-1,2,3-triazol-4-yl}carbonyl)amino]-1,3-benzothiazole-6-carboxylate] | 199 °C
14 | CCOC(=O)Cc1nc(NC(=O)c2nnn(Cc3ccc(Cl)c(Cl)c3)c2C)sc1C [Example 12, Ethyl {2-[({1-[(3,4-dichlorophenyl)methyl]-5-methyl-1H-1,2,3-triazol-4-yl}carbonyl)amino]-5-methyl-1,3-thiazol-4-yl}acetate] | 125 °C
15 | COC(=O)c1ccc(NC(=O)c2nnn(Cc3ccc(Cl)c(Cl)c3)c2C)nc1 [Example 14, Methyl 6-[({1-[(3,4-dichlorophenyl)methyl]-5-methyl-1H-1,2,3-triazol-4-yl}carbonyl)amino]-3-pyridinecarboxylate] | 179 °C
16 | COC(=O)c1ccnc(NC(=O)c2nnn(Cc3ccc(Cl)c(Cl)c3)c2C)c1 [Example 15, Methyl 2-[({1-[(3,4-dichlorophenyl)methyl]-5-methyl-1H-1,2,3-triazol-4-yl}carbonyl)amino]-4-pyridinecarboxylate] | 172 °C
17 | Cc1nc(NC(=O)c2nnn(Cc3ccc(Cl)c(Cl)c3)c2C)sc1C(=O)O [Example 16, 2-[({1-[(3,4-Dichlorophenyl)methyl]-5-methyl-1H-1,2,3-triazol-4-yl}carbonyl)amino]-4-methyl-1,3-thiazole-5-carboxylic acid] | 262.6 °C
18 | Cc1c(C(=O)Nc2ncc(C(=O)O)o2)nnn1Cc1ccc(Cl)c(Cl)c1 [Example 17, 2-[({1-[(3,4-Dichlorophenyl)methyl]-5-methyl-1H-1,2,3-triazol-4-yl}carbonyl)amino]-1,3-oxazole-5-carboxylic acid] | 201.8 °C
19 | CNC(=O)c1sc(NC(=O)c2nnn(Cc3ccc(Cl)c(Cl)c3)c2C)nc1C [Example 18, 1-[(3,4-Dichlorophenyl)methyl]-5-methyl-N-{4-methyl-5-[(methylamino)carbonyl]-1,3-thiazol-2-yl}-1H-1,2,3-triazole-4-carboxamide] | 218.5 °C
20 | Cc1nc(NC(=O)c2nnn(Cc3ccc(Cl)c(Cl)c3)c2C)sc1C(=O)NCCC(C)C [Example 19, 1-[(3,4-Dichlorophenyl)methyl]-5-methyl-N-(4-methyl-5-{[(3-methylbutyl)amino]carbonyl}-1,3-thiazol-2-yl)-1H-1,2,3-triazole-4-carboxamide] | 174.3 °C
21 | Cc1nc(NC(=O)c2nnn(Cc3ccc(Cl)c(Cl)c3)c2C)sc1C(=O)NC(C)C [Example 20, 1-[(3,4-Dichlorophenyl)methyl]-5-methyl-N-(4-methyl-5-{[(1-methylethyl)amino]carbonyl}-1,3-thiazol-2-yl)-1H-1,2,3-triazole-4-carboxamide] | 204.4 °C
22 | CCNC(=O)c1sc(NC(=O)c2nnn(Cc3ccc(Cl)c(Cl)c3)c2C)nc1C [Example 21, 1-[(3,4-Dichlorophenyl)methyl]-N-{5-[(ethylamino)carbonyl]-4-methyl-1,3-thiazol-2-yl}-5-methyl-1H-1,2,3-triazole-4-carboxamide] | 194.1 °C
23 | Cc1c(C(=O)Nc2ncc(C(=O)NCCC(C)C)s2)nnn1Cc1ccc(Cl)c(Cl)c1 [Example 23] | 259.3 °C
24 | Cc1nc(NC(=O)c2nnn(Cc3ccc(Cl)c(Cl)c3)c2C)sc1C(=O)N1CCOCC1 [Example 24, 1-[(3,4-Dichlorophenyl)methyl]-5-methyl-N-[4-methyl-5-(4-morpholinyl-carbonyl)-1,3-thiazol-2-yl]-1H-1,2,3-triazole-4-carboxamide] | 202.9 °C
25 | Cc1nc(NC(=O)c2nnn(Cc3ccc(Cl)c(Cl)c3)c2C)sc1C(=O)N1CCN(C)CC1 [Example 25, 1-[(3,4-Dichlorophenyl)methyl]-5-methyl-N-{4-methyl-5-[(4-methyl-1-piperazinyl)carbonyl]-1,3-thiazo1-2-yl}-1H-1,2,3-triazole-4-carboxamide] | 216.9 °C
